Where two headings read alike, the source gives them in different places.
Assays:
Test in all cases: Thermal stability shift assay
Format in all cases: binding
BMX = target: T1, BMX (Homo sapiens, UniProt P51813); details: read-out: Tm shift BMX
T1 sequence (P51813 1-675): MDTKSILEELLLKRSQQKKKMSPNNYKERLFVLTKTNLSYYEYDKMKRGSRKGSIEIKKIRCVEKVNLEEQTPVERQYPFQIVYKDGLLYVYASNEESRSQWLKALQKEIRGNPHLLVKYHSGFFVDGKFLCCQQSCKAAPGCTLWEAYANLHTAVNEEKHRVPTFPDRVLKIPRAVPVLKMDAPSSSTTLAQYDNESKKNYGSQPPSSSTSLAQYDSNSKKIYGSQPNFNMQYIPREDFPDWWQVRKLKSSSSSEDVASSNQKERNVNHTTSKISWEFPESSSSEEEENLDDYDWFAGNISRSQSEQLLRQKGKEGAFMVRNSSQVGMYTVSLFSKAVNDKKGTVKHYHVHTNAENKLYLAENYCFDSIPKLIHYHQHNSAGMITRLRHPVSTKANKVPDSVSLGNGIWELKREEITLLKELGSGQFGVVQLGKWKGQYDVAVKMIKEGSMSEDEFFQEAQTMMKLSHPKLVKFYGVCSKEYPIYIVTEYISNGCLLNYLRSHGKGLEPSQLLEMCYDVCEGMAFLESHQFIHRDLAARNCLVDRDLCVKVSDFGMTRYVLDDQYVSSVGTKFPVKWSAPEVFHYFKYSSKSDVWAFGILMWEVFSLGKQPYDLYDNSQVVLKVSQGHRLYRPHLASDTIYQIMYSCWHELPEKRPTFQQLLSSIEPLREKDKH
Outline: (§1)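 Thermal denaturation is measured by SyproOrange fluorescence in a real-time PCR machine. Each sample holds 2 μM protein and 10 μM compound in 10 mM HEPES pH 7.5 with 500 mM NaCl.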

CK2a2 = CK2a2 (Homo sapiens, UniProt P19784); details: read-out: Tm shift CK2a2
Sequence of CK2a2 (P19784 whole entry): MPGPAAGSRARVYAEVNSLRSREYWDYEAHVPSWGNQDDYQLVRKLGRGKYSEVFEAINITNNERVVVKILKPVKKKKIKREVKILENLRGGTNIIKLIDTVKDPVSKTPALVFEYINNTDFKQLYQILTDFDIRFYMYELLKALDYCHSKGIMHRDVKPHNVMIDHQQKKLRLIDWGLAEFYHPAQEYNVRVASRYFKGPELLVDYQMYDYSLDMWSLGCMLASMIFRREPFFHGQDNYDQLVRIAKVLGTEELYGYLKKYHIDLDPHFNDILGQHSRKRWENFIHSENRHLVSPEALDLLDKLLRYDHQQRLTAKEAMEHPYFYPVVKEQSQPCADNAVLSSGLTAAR
Outline: as §1

CaMK4 = target: T2, CaMK4 (Homo sapiens, UniProt Q16566); details: read-out: Tm shift CaMK4
T2 sequence (Q16566 1-473): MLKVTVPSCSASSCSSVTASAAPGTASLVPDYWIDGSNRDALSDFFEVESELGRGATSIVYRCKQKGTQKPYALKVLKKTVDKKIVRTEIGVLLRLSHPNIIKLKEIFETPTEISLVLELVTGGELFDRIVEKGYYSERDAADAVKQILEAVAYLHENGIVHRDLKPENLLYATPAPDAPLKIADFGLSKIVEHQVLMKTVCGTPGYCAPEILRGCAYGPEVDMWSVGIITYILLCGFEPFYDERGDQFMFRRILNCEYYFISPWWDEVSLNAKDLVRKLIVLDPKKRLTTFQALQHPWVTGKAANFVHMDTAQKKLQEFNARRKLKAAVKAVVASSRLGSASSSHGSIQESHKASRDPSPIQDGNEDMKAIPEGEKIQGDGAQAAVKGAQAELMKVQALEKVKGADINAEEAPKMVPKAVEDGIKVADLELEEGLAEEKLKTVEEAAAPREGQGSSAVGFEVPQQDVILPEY
Outline: as §1

NDR1 = target: T3, NDR1 (Homo sapiens, UniProt Q15208); details: read-out: Tm shift NDR1
T3 construct: purchased in-house (SGC Oxford thermal shift panel)
T3 sequence (Q15208 whole entry): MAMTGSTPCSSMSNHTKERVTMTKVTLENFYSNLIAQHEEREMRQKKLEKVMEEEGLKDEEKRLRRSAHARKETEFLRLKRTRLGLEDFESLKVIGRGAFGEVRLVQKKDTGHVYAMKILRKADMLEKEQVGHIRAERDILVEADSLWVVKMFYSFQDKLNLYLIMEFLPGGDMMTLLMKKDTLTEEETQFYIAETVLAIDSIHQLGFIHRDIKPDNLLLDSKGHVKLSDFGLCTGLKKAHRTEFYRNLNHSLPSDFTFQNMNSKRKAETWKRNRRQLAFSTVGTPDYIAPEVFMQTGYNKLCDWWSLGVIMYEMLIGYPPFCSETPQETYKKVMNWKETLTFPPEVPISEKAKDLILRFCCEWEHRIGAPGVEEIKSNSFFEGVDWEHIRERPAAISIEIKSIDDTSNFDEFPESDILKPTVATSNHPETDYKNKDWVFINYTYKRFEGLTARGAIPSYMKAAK
Outline: as §1

PCTAIRE1 = target: T4, PCTAIRE1 (Homo sapiens, UniProt Q00536); details: read-out: Tm shift PCTAIRE1
T4 construct: purchased in-house (SGC Oxford thermal shift panel)
T4 sequence (Q00536 whole entry): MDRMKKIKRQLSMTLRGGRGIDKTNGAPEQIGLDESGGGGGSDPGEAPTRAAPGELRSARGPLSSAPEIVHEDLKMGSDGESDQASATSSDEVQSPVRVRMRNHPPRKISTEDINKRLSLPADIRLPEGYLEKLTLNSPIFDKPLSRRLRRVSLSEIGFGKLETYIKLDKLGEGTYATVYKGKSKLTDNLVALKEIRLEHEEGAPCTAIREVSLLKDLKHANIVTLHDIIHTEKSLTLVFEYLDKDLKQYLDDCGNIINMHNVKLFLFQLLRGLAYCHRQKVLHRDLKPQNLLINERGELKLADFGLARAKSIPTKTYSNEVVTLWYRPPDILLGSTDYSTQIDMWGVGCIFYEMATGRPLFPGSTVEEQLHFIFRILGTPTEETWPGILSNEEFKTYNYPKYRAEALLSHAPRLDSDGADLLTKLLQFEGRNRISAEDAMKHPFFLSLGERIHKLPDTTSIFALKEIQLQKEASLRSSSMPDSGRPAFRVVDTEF
Outline: as §1

PIM2 = PIM2 (Homo sapiens, UniProt Q9P1W9); details: read-out: Tm shift PIM2
Sequence of PIM2 (Q9P1W9 whole entry): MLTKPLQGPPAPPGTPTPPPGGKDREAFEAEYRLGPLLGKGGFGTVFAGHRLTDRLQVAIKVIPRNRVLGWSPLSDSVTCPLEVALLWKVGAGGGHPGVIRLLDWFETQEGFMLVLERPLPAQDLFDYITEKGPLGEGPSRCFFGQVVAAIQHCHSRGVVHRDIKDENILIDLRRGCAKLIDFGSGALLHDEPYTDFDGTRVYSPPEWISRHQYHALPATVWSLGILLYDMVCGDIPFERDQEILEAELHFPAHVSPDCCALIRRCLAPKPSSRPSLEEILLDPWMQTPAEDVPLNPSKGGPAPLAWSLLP
Outline: as §1

PIM3 = PIM3 (Homo sapiens, UniProt Q86V86); details: read-out: Tm shift PIM3
Outline: as §1

PKD2 = target: T5, PKD2 (Homo sapiens, UniProt Q9BZL6); details: read-out: Tm shift PKD2
T5 sequence (Q9BZL6 1-878): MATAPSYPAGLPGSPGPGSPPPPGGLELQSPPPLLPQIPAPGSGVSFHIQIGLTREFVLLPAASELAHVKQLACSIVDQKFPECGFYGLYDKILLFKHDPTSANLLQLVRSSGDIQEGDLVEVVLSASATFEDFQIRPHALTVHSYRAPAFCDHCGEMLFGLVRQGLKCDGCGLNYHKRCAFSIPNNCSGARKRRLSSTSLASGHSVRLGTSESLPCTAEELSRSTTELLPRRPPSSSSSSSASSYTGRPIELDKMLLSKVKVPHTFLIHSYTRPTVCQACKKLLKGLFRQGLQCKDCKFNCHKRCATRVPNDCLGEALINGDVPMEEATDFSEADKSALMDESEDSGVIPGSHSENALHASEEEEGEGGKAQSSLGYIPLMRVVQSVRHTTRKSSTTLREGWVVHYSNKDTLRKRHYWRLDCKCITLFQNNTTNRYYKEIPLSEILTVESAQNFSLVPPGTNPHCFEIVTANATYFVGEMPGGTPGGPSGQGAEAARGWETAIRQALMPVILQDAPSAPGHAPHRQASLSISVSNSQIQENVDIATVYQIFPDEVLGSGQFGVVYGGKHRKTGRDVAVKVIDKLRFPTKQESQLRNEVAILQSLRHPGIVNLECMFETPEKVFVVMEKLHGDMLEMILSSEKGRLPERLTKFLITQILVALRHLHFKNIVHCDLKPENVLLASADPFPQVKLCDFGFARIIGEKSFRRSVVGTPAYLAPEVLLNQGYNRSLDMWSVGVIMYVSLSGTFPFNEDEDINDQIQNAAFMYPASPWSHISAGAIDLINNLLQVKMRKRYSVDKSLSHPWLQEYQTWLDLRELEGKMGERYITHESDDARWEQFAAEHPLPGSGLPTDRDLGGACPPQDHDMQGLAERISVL
Outline: as §1

ΔTm at 10 µM (BMX; inhibitor 10 μM) [°C] | ΔTm at 10 µM (CK2a2; inhibitor 10 μM) [°C] | ΔTm at 10 µM (CaMK4; inhibitor 10 μM) [°C] | ΔTm at 10 µM (NDR1; inhibitor 10 μM) [°C] | ΔTm at 10 µM (PCTAIRE1; inhibitor 10 μM) [°C] | ΔTm at 10 µM (PIM2; inhibitor 10 μM) [°C] | ΔTm at 10 µM (PIM3; inhibitor 10 μM) [°C] | ΔTm at 10 µM (PKD2; inhibitor 10 μM) [°C] | SMILES | ΔTm at 10 µM (BMX) [°C] | ΔTm at 10 µM (CK2a2) [°C] | ΔTm at 10 µM (CaMK4) [°C] | ΔTm at 10 µM (NDR1) [°C] | ΔTm at 10 µM (PCTAIRE1) [°C] | ΔTm at 10 µM (PIM2) [°C] | ΔTm at 10 µM (PIM3) [°C] | ΔTm at 10 µM (PKD2) [°C]
-0.2 | 0 | 0.2 | 0.4 | 0.4 | 0.8 | 3.2 | 0 | CCOC(=O)c1c(C(C#N)=CN(C)C)c2ccc(Cl)c(Cl)c2n1C (mixture of isomers) [compound 2, (E/Z)-Ethyl 6,7-Dichloro-3-[1-Cyano-2-(Dimethylamino)Vinyl]-1-Methyl-1H-Indole-2-Carboxylate] | – | – | – | – | – | – | – | –
– | – | – | – | – | – | – | – | CCOC(=O)c1c(/C(C#N)=C\N)c2ccc(Cl)c(Cl)c2n1C [KH-CB19, (E)-Ethyl 3-(2-Amino-1-Cyanovinyl)-6,7-Dichloro-1-Methyl-1H-Indole-2-Carboxylate] | 0.2 | 1.4 | 0.8 | 0.2 | 0.4 | 2.1 | 3.1 | 0.1
– | – | – | – | – | – | – | – | CCOC(=O)c1c(C(C#N)=CN)c2ccc(Cl)c(Cl)c2n1C (mixture of isomers) [KH-CB20, (E/Z)-Ethyl 3-(2-Amino-1-Cyanovinyl)-6,7-Dichloro-1-Methyl-1H-Indole-2-Carboxylate] | 0.2 | 1.3 | -0.1 | 0.3 | 0.1 | 2.1 | 2.8 | -0.2
-0.1 | 1.7 | 0.4 | 0.7 | 0.4 | 3 | 4.2 | 0.1 | Cn1c2c(Cl)c(Cl)ccc2c2c(C#N)c[nH]c(=O)c21 [compound 3, 7,8-Dichloro-9-Methyl-1-Oxo-2,9-Dihydro-1H-Pyrido[3,4-b]Indole-4-Carbonitrile] | – | – | – | – | – | – | – | –

SMILES | ΔTm at 10 µM (BMX; inhibitor 10 μM) [°C] | ΔTm at 10 µM (CK2a2; inhibitor 10 μM) [°C] | ΔTm at 10 µM (CaMK4; inhibitor 10 μM) [°C] | ΔTm at 10 µM (NDR1; inhibitor 10 μM) [°C] | ΔTm at 10 µM (PCTAIRE1; inhibitor 10 μM) [°C] | ΔTm at 10 µM (PIM2; inhibitor 10 μM) [°C] | ΔTm at 10 µM (PIM3; inhibitor 10 μM) [°C] | ΔTm at 10 µM (PKD2; inhibitor 10 μM) [°C] | ΔTm at 10 µM (BMX) [°C] | ΔTm at 10 µM (CK2a2) [°C] | ΔTm at 10 µM (CaMK4) [°C] | ΔTm at 10 µM (NDR1) [°C] | ΔTm at 10 µM (PCTAIRE1) [°C] | ΔTm at 10 µM (PIM2) [°C] | ΔTm at 10 µM (PIM3) [°C] | ΔTm at 10 µM (PKD2) [°C]
NC1=NC(=O)/C(=C2\CCNC(=O)c3[nH]c(Br)cc32)N1 [Hymenialdisine, hymenialdisine, reference compound] | -0.1 | 1.2 | 0.4 | 1 | 0.7 | 3.5 | 3.8 | 0.8 | – | – | – | – | – | – | – | –
